Literature values, collected in PubChem BioAssay AID1259409 (Chemical Carcinogenesis Research Information System (CCRIS), 2018).

Test system: rodent chemically induced tumor inhibition, incidence and multiplicity
Test: CCRIS tumor inhibitor studies

## CC1=C(/C=C/C(C)=C/C=C/C(C)=C/C(=O)Nc2nn[nH]n2)C(C)(C)CCC1
Carcinogen: N-BUTYL-N-(4-HYDROXYBUTYL)NITROSAMINE, 3817-11-6, Dose [Inhibitor]: 1.5 MMOL/KG DIET DAILY FOR 159 D STARTING 1 WK AFTER THE FINAL CARCINOGEN DOSE (STUDY DURATION: 216 D), Route [Inhibitor]: ORAL, Species: MOUSE, Strain/Sex: BDF/MALE, Target Tissue: Type of Lesion: URINARY BLADDER: TRANSITIONAL CELL CARCINOMA, Dose [Carcinogen]: 7.5 MG 1/WK FOR 8 WK, Promoter: NONE USED
  tumour outcome (control, treated, inhibition, significance): 29/98 (30%), 15/97 (16%), 47%, p<0.05
Carcinogen: N-BUTYL-N-(4-HYDROXYBUTYL)NITROSAMINE, 3817-11-6, Dose [Inhibitor]: 1.5 MMOL/KG/D IN DIET FOR 159 D STARTING 1 WK POST CARCINOGEN TREATMENT (STUDY DURATION: 216 D), Route [Inhibitor]: ORAL, Species: MOUSE, Strain/Sex: BDF/MALE, Target Tissue: Type of Lesion: URINARY BLADDER: TRANSITIONAL CELL CARCINOMA, Dose [Carcinogen]: 7.5 MG 1/WK FOR 8 WK, Promoter: NONE USED
  tumour outcome (control, treated, inhibition, significance): 29/98 (30%), 15/97 (16%), 47%, p<0.05

## O=C1C=C(/C=C/c2ccccc2)C(O)O1 (stereo unspecified)
Carcinogen: AZOXYMETHANE, 25843-45-2, Dose [Inhibitor]: 0, 0.02% IN DIET FOR FIRST 3 WK OF STUDY (STUDY DURATION: 1 YR), Route [Inhibitor]: ORAL, Species: RAT, Strain/Sex: F344/MALE, Target Tissue: Type of Lesion: INTESTINE: ADENOMA OR ADENOCARCINOMA, Dose [Carcinogen]: 15 MG/KG BW ONCE IN WK 1 AND ONCE IN WK 3 OF STUDY, Promoter: NONE USED
  tumour outcome (control, treated, inhibition, significance): 20/27 (74%), 7/18 (39%), 47%, p<0.02
Carcinogen: AZOXYMETHANE, 25843-45-2, Dose [Inhibitor]: 0, 100 PPM IN DIET FOR DURATION OF STUDY BEGINNING 1 WK POST CARCINOGEN TREATMENT (STUDY DURATION: 32 WK), Route [Inhibitor]: ORAL, Species: RAT, Strain/Sex: F344/MALE, Target Tissue: Type of Lesion: LARGE INTESTINE: ADENOCARCINOMA, Dose [Carcinogen]: 15 MG/KG BW 1/WK FOR 3 WK, Promoter: NONE USED
  tumour outcome (control, treated, inhibition, significance): 10/30 (33%), 5/28 (18%), 45%, not significant
Carcinogen: AZOXYMETHANE, 25843-45-2, Dose [Inhibitor]: 0, 100 PPM IN DIET FOR DURATION OF STUDY BEGINNING 1 WK POST CARCINOGEN TREATMENT (STUDY DURATION: 32 WK), Route [Inhibitor]: ORAL, Species: RAT, Strain/Sex: F344/MALE, Target Tissue: Type of Lesion: LARGE INTESTINE: ADENOMA, Dose [Carcinogen]: 15 MG/KG BW 1/WK FOR 3 WK, Promoter: NONE USED
  tumour outcome (control, treated, inhibition, significance): 1/30 (3%), 2/28 (7%), -133%, not significant
Carcinogen: AZOXYMETHANE, 25843-45-2, Dose [Inhibitor]: 0, 100 PPM IN DIET FOR DURATION OF STUDY BEGINNING 1 WK POST CARCINOGEN TREATMENT (STUDY DURATION: 32 WK), Route [Inhibitor]: ORAL, Species: RAT, Strain/Sex: F344/MALE, Target Tissue: Type of Lesion: SMALL INTESTINE: ADENOCARCINOMA, Dose [Carcinogen]: 15 MG/KG BW 1/WK FOR 3 WK, Promoter: NONE USED
  tumour outcome (control, treated, inhibition, significance): 12/30 (40%), 7/28 (25%), 38%, not significant
Carcinogen: AZOXYMETHANE, 25843-45-2, Dose [Inhibitor]: 0, 100 PPM IN DIET FOR DURATION OF STUDY BEGINNING 1 WK POST CARCINOGEN TREATMENT (STUDY DURATION: 32 WK), Route [Inhibitor]: ORAL, Species: RAT, Strain/Sex: F344/MALE, Target Tissue: Type of Lesion: SMALL INTESTINE: ADENOMA, Dose [Carcinogen]: 15 MG/KG BW 1/WK FOR 3 WK, Promoter: NONE USED
  tumour outcome (control, treated, inhibition, significance): 1/30 (3%), 1/28 (4%), -33%, not significant
Carcinogen: AZOXYMETHANE, 25843-45-2, Dose [Inhibitor]: 0, 200 PPM IN DIET FOR DURATION OF STUDY BEGINNING 1 WK POST CARCINOGEN TREATMENT (STUDY DURATION: 32 WK), Route [Inhibitor]: ORAL, Species: RAT, Strain/Sex: F344/MALE, Target Tissue: Type of Lesion: LARGE INTESTINE: ADENOCARCINOMA, Dose [Carcinogen]: 15 MG/KG BW 1/WK FOR 3 WK, Promoter: NONE USED
  tumour outcome (control, treated, inhibition, significance): 10/30 (33%), 3/28 (11%), 67%, p<0.05
Carcinogen: AZOXYMETHANE, 25843-45-2, Dose [Inhibitor]: 0, 200 PPM IN DIET FOR DURATION OF STUDY BEGINNING 1 WK POST CARCINOGEN TREATMENT (STUDY DURATION: 32 WK), Route [Inhibitor]: ORAL, Species: RAT, Strain/Sex: F344/MALE, Target Tissue: Type of Lesion: LARGE INTESTINE: ADENOMA, Dose [Carcinogen]: 15 MG/KG BW 1/WK FOR 3 WK, Promoter: NONE USED
  tumour outcome (control, treated, inhibition, significance): 1/30 (3%), 2/28 (7%), -133%, not significant
Carcinogen: AZOXYMETHANE, 25843-45-2, Dose [Inhibitor]: 0, 200 PPM IN DIET FOR DURATION OF STUDY BEGINNING 1 WK POST CARCINOGEN TREATMENT (STUDY DURATION: 32 WK), Route [Inhibitor]: ORAL, Species: RAT, Strain/Sex: F344/MALE, Target Tissue: Type of Lesion: SMALL INTESTINE: ADENOCARCINOMA, Dose [Carcinogen]: 15 MG/KG BW 1/WK FOR 3 WK, Promoter: NONE USED
  tumour outcome (control, treated, inhibition, significance): 12/30 (40%), 2/28 (7%), 83%, p<0.005
Carcinogen: AZOXYMETHANE, 25843-45-2, Dose [Inhibitor]: 0, 200 PPM IN DIET FOR DURATION OF STUDY BEGINNING 1 WK POST CARCINOGEN TREATMENT (STUDY DURATION: 32 WK), Route [Inhibitor]: ORAL, Species: RAT, Strain/Sex: F344/MALE, Target Tissue: Type of Lesion: SMALL INTESTINE: ADENOMA, Dose [Carcinogen]: 15 MG/KG BW 1/WK FOR 3 WK, Promoter: NONE USED
  tumour outcome (control, treated, inhibition, significance): 1/30 (3%), 0/28 (0%), 100%, not significant

## C
Carcinogen: N-METHYL-N'-NITRO-N-NITROSOGUANIDINE [70-25-7], Dose [Inhibitor]: 100 MG/KG BW AQUALEN (ACTIVATED CARBON FIBER ADSORBENT) IN DIET 5X/WK FOR 16 MONTHS (STUDY DURATION: 16 MONTHS), Route [Inhibitor]: ORAL, Species: RAT, Strain/Sex: LIO/FEMALE, Target Tissue: Type of Lesion: DUODENUM: ADENOCARCINOMA, Dose [Carcinogen]: 100 MG/L IN DRINKING WATER 5X/WK FOR 12 MONTHS (STUDY DURATION: 16 MONTHS), Promoter: NONE
  tumour outcome (control, treated, inhibition, significance): 2/14 (14.3%), 0/13 (0.0%), 100%, not significant
Carcinogen: N-METHYL-N'-NITRO-N-NITROSOGUANIDINE [70-25-7], Dose [Inhibitor]: 100 MG/KG BW AQUALEN (ACTIVATED CARBON FIBER ADSORBENT) IN DIET 5X/WK FOR 16 MONTHS (STUDY DURATION: 16 MONTHS), Route [Inhibitor]: ORAL, Species: RAT, Strain/Sex: LIO/FEMALE, Target Tissue: Type of Lesion: LIVER: CYSTOCHOLANGIOMA, Dose [Carcinogen]: 100 MG/L IN DRINKING WATER 5X/WK FOR 12 MONTHS (STUDY DURATION: 16 MONTHS), Promoter: NONE
  tumour outcome (control, treated, inhibition, significance): 2/14 (14.3%), 0/13 (0.0%), 100%, not significant
Carcinogen: N-METHYL-N'-NITRO-N-NITROSOGUANIDINE [70-25-7], Dose [Inhibitor]: 100 MG/KG BW AQUALEN (ACTIVATED CARBON FIBER ADSORBENT) IN DIET 5X/WK FOR 16 MONTHS (STUDY DURATION: 16 MONTHS), Route [Inhibitor]: ORAL, Species: RAT, Strain/Sex: LIO/FEMALE, Target Tissue: Type of Lesion: STOMACH: CARCINOMA IN SITU, Dose [Carcinogen]: 100 MG/L IN DRINKING WATER 5X/WK FOR 12 MONTHS (STUDY DURATION: 16 MONTHS), Promoter: NONE
  tumour outcome (control, treated, inhibition, significance): 1/14 (7.1%), 4/13 (30.8%), -334%, not significant
Carcinogen: N-METHYL-N'-NITRO-N-NITROSOGUANIDINE [70-25-7], Dose [Inhibitor]: 100 MG/KG BW AQUALEN (ACTIVATED CARBON FIBER ADSORBENT) IN DIET 5X/WK FOR 16 MONTHS (STUDY DURATION: 16 MONTHS), Route [Inhibitor]: ORAL, Species: RAT, Strain/Sex: LIO/FEMALE, Target Tissue: Type of Lesion: STOMACH: INVASIVE ADENOCARCINOMA, Dose [Carcinogen]: 100 MG/L IN DRINKING WATER 5X/WK FOR 12 MONTHS (STUDY DURATION: 16 MONTHS), Promoter: NONE
  tumour outcome (control, treated, inhibition, significance): 5/14 (35.7%), 1/13 (7.7%), 78%, p<0.05

## C=C1CC[C@H]2C(C)(C)CCC[C@]2(C)[C@H]1CO
Carcinogen: 7,12-DIMETHYLBENZ[A]ANTHRACENE [57-97-6], Dose [Inhibitor]: 85 NMOL/G IN 0.1 ML ACETONE 2X/WK FOR 20 WK 1 HR PRIOR TO EACH PROMOTER DOSE BEGINNING 1 WK POST LAST CARCINOGEN DOSE (S, Route [Inhibitor]: DERMAL, Species: MOUSE, Strain/Sex: ICR/FEMALE, Target Tissue: Type of Lesion: SKIN: PAPILLOMA, Dose [Carcinogen]: 390 NMOL IN 0.1 ML ACETONE ONCE (STUDY DURATION: 21 WK), Promoter: 12-O-TETRADECANOYL-13-ACETATE [16561-29-8]
  tumour outcome (control, treated, inhibition, significance): 100%, 65%, 35%, not calculated
